Data reported in patent publication US20130231472A1, “USE OF MOLECULAR MARKERS FOR THE PRECLINICAL PROFILING OF INHIBITORS OF ENZYMES HAVING HISTONE DEACETYLASE ACTIVITY” (priority 2002, published 2013).

Tests used:
[1] = test system: splenocytes from healthy mice; assay: Apoptosis of cultured normal splenocytes (propidium iodide staining); format: cell-based; conditions: VPA 1 mM, 48 hours, FIG. 3B
Protocol: FIG. 3: (A) Secondary acute promyelocytic leukemias were induced in mice as described above. Leukemic mice were then treated with placebo (Ctrl), or VPA (400 mg/kg every 12 hours). Mice were sacrificed 48 hours after beginning of treatments, and then leukemic spleens were fixed and either stained for histological examination (hematoxylin-eosyn, left panels), or analyzed for the presence of apoptotic cells (TUNEL assay, right panels). (B) Secondary leukemias were obtained as above. Mice were sacrificed when leukemic invasion of peripheral organs was >75% (spleen). Splenocytes from healthy mice (taken as control, left panel), or from leukemic mice (>75% blasts, right panel) were put in culture and then treated with VPA (1 mM) for 48 hours. At the end of the treatment, apoptosis was measured by propidium iodide staining. The sub-G1 area indicates the hypodiploid DNA peak corresponding to cells with fragmented DNA undergoing apoptosis.

HDAC-2 mRNA = HDAC-2 mRNA levels in HEK293T cells (Northern blot); format: cell-based, human; conditions: 1 mM VPA, FIG. 7
Protocol: FIG. 7: F9 cells or HEK 293T cells were treated for indicated times with 1 mM VPA and the levels of HDAC-2 mRNA were determined by Northern blot analysis from 5 μg polyA^+ RNA.

HDAC-2 = HDAC-2 pulse labeling and pulse-chase analysis in HEK293T cells; format: cell-based, human
Protocol: FIG. 8: Synthesis and degradation rate of HDAC-2 were analyzed by pulse metabolic labeling with ^35S-methionine and pulse-chase analyses. ^35S-labelled HDAC-2 was detected by HDAC-2 specific immune precipitation followed by SDS-PAGE separation and autoradiography. (A) Pulse labeling for 1 h was performed in F9 and HEK293T cells which had been left untreated or were pretreated with 1 mM VPA for 24 h. (B) For pulse chase analysis cells were left untreated or pretreated for 24 h with 1 mM VPA and labeled with ^35S-methionine for an additional hour in the absence or presence of VPA. After removal of ^35S-methionine and addition of non-labeled methionine the elimination of radiolabeled HDAC-2 was followed over a period of 6 h. A pulse chase analysis was also performed in HEK293T cells without VPA pretreatment and addition of VPA (indicated by the (+) row) only at the time when the chase period was started. From HEK293T cell extracts also HDAC-3 was precipitated for reference.

SMILES: CCCC(CCC)C(=O)O [VPA, Valproic acid]
- apoptosis (propidium iodide, sub-G1) [1]: unable to induce apoptosis of normal splenocytes
- HDAC-2 mRNA levels (HDAC-2 mRNA): no response of HDAC-2 mRNA levels
- HDAC-2 synthesis rate (35S-methionine pulse labeling) (HDAC-2; 1 mM VPA pretreatment 24 h, FIG. 8A): No substantial difference in HDAC-2 synthesis rate
- half-life of HDAC-2 (pulse-chase) (HDAC-2; 1 mM VPA pretreatment 24 h, FIG. 8B): substantially decreased
- HDAC-2 protein degradation rate (HDAC-2; VPA added only at the time of chase, FIG. 8B): no effect
